{
  "source": "patent US11058690B2",
  "about": "“Use of cytochrome bc1 complex inhibitor in preparing pharmaceutical composition” (BEIJING WEILANZHIYUAN MEDICAL TECHNOLOGY CO., LTD., priority 2017, dated 2021)",
  "key": {"[1]": {"test_system": "Kunming male mice", "experiment": "acetic acid writhing test on mice", "type": "in vivo, mouse", "conditions": "for Number of writhing times: within 30 min"}, "[2]": {"test_system": "Kunming female mice", "experiment": "PGF2α-induced dysmenorrhea model in mice (diethylstilbestrol sensitization)", "type": "in vivo, mouse", "conditions": "for Number of writhing times: within 30 min", "description": "(§1) A mouse dysmenorrhea model was established with reference to Yang L., Cao Z., Yu B. & Chai C. An in vivo mouse model of primary dysmenorrhea. Exp Anim. 2015, August 64, 295-303. Adult healthy Kunming female mice were randomly grouped, 10 mice in each group. Experimental mice were intragastrically given diethylstilbestrol 0.2 mg daily for 12 days. Different kinds and dosages of the inhibitors of the cytochrome bc1 complex were given intraperitoneally or intragastrically 30 min after the last administration. Indometacin (50 mg/kg) was injected intraperitoneally as positive control, PGF2α (1.3 mg/kg) or oxytocin (20 U/kg) was injected intraperitoneally 1 h later, and the writhe starting time (reaction latency) and the number of writhing times within 30 min were observed and recorded."}, "[3]": {"test_system": "SD rats", "experiment": "carrageenan-induced rat paw swelling test", "type": "in vivo", "conditions": "4 mg/Kg positive control", "description": "Eighteen healthy adult male mice were randomly divided into 3 groups. FAPM (100 mg/kg) was administered intraperitoneally once a day for 3 consecutive days. The control group was injected with the same amount of solvent, and the positive drug dexamethasone (4 mg/kg) was administered intragastrically once a day for 3 consecutive days. Thirty minutes after the last administration, 0.1 mL of 1% carrageenan was injected subcutaneously into the right hind paw of each rat, and the plantar thickness was measured before injection and 1, 2 and 3 hours after injection. Three hours later, the rats were sacrificed by dislocation. The feet were cut off from the knee joints and weighed on a precision balance. The swelling degree of the paw (right foot weight-left foot weight) was calculated."}, "[4]": {"test_system": "Kunming female mice", "experiment": "oxytocin-induced dysmenorrhea model in mice (diethylstilbestrol sensitization)", "type": "in vivo, mouse", "conditions": "Table 9, positive control 50 mg/Kg intraperitoneal", "description": "as §1"}, "[5]": {"test_system": "mice", "experiment": "xylene-induced mouse ear swelling test", "type": "in vivo", "conditions": "10 mg/Kg", "description": "Fifty healthy adult male mice were randomly divided into 5 groups. […] […] One hour after administration, 20 μL of xylene was evenly applied to both sides of the right ear of mouse, and xylene was not applied to the left ear as self control. One hour later, the two ears were cut off, and two ear pieces were removed from the same parts of the two ears with a 6 mm hole punch. The two ear pieces were weighed on a precision balance, and the swelling degree (right ear piece weight-left ear piece weight) and swelling inhibition rate (right ear piece weight-left ear piece weight)/left ear piece weight×100%) were calculated."}, "[6]": {"conditions": "Table 5, positive control 50 mg/Kg intraperitoneal"}, "[7]": {"conditions": "Table 8, positive control 50 mg/Kg intraperitoneal"}},
  "data": [
    {"smiles": "COc1ccc2c(c1)c(CC(=O)O)c(C)n2C(=O)c1ccc(Cl)cc1", "note": "[Indomethacin, reference compound]", "values": [
      {"measurement": "Writhe starting time", "setting": "[1]; Table 3, 50 mg/Kg intraperitoneal", "value": "4.6 ± 0.8", "unit": "min"},
      {"measurement": "Number of writhing times", "setting": "[1]; Table 3, 50 mg/Kg intraperitoneal, 1 hour before acetic acid", "value": "15.8 ± 3.9"},
      {"measurement": "Writhe starting time", "setting": "[1]; [6]", "value": "3.4 ± 1.0", "unit": "min"},
      {"measurement": "Number of writhing times", "setting": "[1]; [6]", "value": "24.8 ± 4.8"},
      {"measurement": "Writhe starting time", "setting": "[2]; Table 7, 50 mg/Kg intraperitoneal", "value": "1.89 ± 0.6", "unit": "min"},
      {"measurement": "Number of writhing times", "setting": "[2]; Table 7, 50 mg/Kg intraperitoneal, 1 h before PGF2α (1.3 mg/kg)", "value": "15.0 ± 2.1"},
      {"measurement": "Writhe starting time", "setting": "[2]; [7]", "value": "2.1 ± 1.2", "unit": "min"},
      {"measurement": "Number of writhing times", "setting": "[2]; [7]", "value": "16.8 ± 2.5"},
      {"measurement": "Paw swelling thickness 1 h", "setting": "[3]; 1 h after carrageenan", "value": "5.52 ± 0.39", "unit": "mm"},
      {"measurement": "Paw swelling thickness 2 h", "setting": "[3]; 2 h after carrageenan", "value": "5.65 ± 0.39", "unit": "mm"},
      {"measurement": "Paw swelling thickness 3 h", "setting": "[3]; 3 h after carrageenan", "value": "6.11 ± 0.15", "unit": "mm"},
      {"measurement": "Paw swelling (right foot weight-left foot weight)", "setting": "[3]; 3 hours after carrageenan", "value": "0.518 ± 0.05", "unit": "g"},
      {"measurement": "Writhe starting time", "setting": "[4]", "value": "3.5 ± 1.0"},
      {"measurement": "Number of writhing times", "setting": "[4]; oxytocin (20 U/kg), within 30 min", "value": "14.7 ± 1.4"},
      {"measurement": "ear swelling degree versus control group", "setting": "[5]", "value": "no statistical difference"},
      {"measurement": "Ear swelling", "setting": "[5]; positive control intraperitoneal, 1 hour after xylene", "value": "12 ± 3.74", "unit": "mg"}
    ]}
  ]
}
